Reference: patent publication US8871767B2, “2-arylimidazo[1,2-B]pyridazine, 2-phenylimidazo[1,2-A]pyridine, and 2-phenylimidazo[1,2-A]pyrazine derivatives” (Hengrui (USA) Ltd., priority 2010, dated 2014)

Each compound was assayed on Hedgehog pathway activation (GLi-luciferase reporter) in Shh Light II reporter cells (assay: Hedgehog pathway activation on Shh Light II reporter cells measured by luciferase activity). Conditions: Mus musculus, Shh Light II, hShh activation, read-out: Shh (IC50, inhibition of Hedgehog pathway activation).
Format: cell-based
Protocol: Hedgehog conditioned media was obtained by transfecting 293H cells with the full length gene encoding human Sonic Hedgehog (hShh) inserted into the pCMV6 expression vector, which contains a neomycin selectable marker and expresses the protein of interest with a C-terminal FLAG affinity tag. After selection in G418 containing media, conditioned media from Hedgehog expressing clones were tested for the ability to activate the hedgehog-responsive GLi-luciferase reporter in the Shh Light II cell line obtained by license from John Hopkins University (Taipale J, et al. Effects of oncogenic mutations in Smoothened and Patched can be reversed by cyclopamine. Nature 406: 1005-1009, 2000).
A test compound library was screened against hShh and 500 nM SAG (a direct agonist of the Smoothened receptor) activated 10T1/2/Smo#3 cells and Shh Light II reporter cells for the ability to block Hedgehog pathway activation. Concurrently, cell viability was measured by utilizing Celltiter-Blue® (Promega, Madison Wis.) viability assay. Active compounds were defined as those that inhibited Hedgehog signaling by greater than 50% with no concurrent loss in cell viability.
Their inhibitory activity against Hedgehog pathway activation on 10T1/2/Smo#3 cells as measured by ALP activity and Shh Light II reporter cells as measured by luciferase activity is shown in Table 1 below. In Table 1, +++ stands for an IC50 value that is less than 0.3 μM, ++ between 0.3 and 3 μM, + between 3 and 30 μM.
Additional data for compounds of the invention is shown below in Table 2. Their inhibitory activities against Hedgehog pathway activation are shown as IC50 values in μM on 10T1/2/Smo#3 cells as measured by ALP activity, or on Shh Light II reporter cells as measured by luciferase activity (hShh activation).
In the case of Cc1ccc(-c2cn3nc(-c4c(C)nn(C)c4C)ccc3n2)cc1NC(=O)C(C)(C)C [compound 503], the IC50 is reported as 330 nM. With Cc1ccc(-c2cn3nc(NC(=O)c4ccccn4)ccc3n2)cc1NC(=O)C(C)(C)C [compound 611] the IC50 was 49 nM. With Cc1ccc(-c2cn3nc(-c4c[nH]nc4C)ccc3n2)cc1NC(=O)C(C)(C)C [compound 500] the IC50 was 450 nM. Work on Cc1ccc(-c2cn3nc(-c4ccc(C(F)(F)F)cn4)ccc3n2)cc1NC(=O)C(C)(C)C [Example 457, N-(2-methyl-5-(6-(5-(trifluoromethyl)pyridin-2-yl)imidazo[1,2-b]pyridazin-2-yl)phenyl)pivalamide] yielded an IC50 of 334 nM. In the case of CC(C)(C)C(=O)Nc1cc(-c2cn3nc(N4CCNCC4)ccc3n2)ccc1C(F)(F)F [Example 328, N-(5-(6-(piperazin-1-yl)imidazo[1,2-b]pyridazin-2-yl)-2-(trifluoromethyl)phenyl)pivalamide], the IC50 is reported as 3540 nM. In the case of Cc1ccc(-c2cn3nc(-c4ccc(C(=O)O)cn4)ccc3n2)cc1NC(=O)C(C)(C)C [Example 459, 6-(2-(4-methyl-3-pivalamidophenyl)imidazo[1,2-b]pyridazin-6-yl)nicotinic acid], the IC50 is reported as 9290 nM. Compound CC(C)(C)C(=O)Nc1cc(-c2cn3nc(-c4cccc(S(C)(=O)=O)c4)ccc3n2)ccc1C(F)(F)F [Example 325, N-(5-(6-(3-(methylsulfonyl)phenyl)imidazo[1,2-b]pyridazin-2-yl)-2-(trifluoromethyl)phenyl)pivalamide] has an IC50 of 740 nM. Cc1ccc(-c2cn3nc(-c4cccnc4C(F)(F)F)ccc3n2)cc1NS(=O)(=O)c1cccc(C=CC(=O)Nc2ccccc2N)c1 [compound 624, N-(2-aminophenyl)-3-(3-(N-(2-methyl-5-(6-(2-(trifluoromethyl)pyridin-3-yl)imidazo[1,2-b]pyridazin-2-yl)phenyl)sulfamoyl)phenyl)acrylamide] showed an IC50 of 824 nM. With Cc1ccc(-c2cn3nc(-c4ccc(OCC(=O)NO)cc4C(F)(F)F)ccc3n2)cc1NC(=O)C(C)(C)C [Example 455, N-(5-(6-(4-(2-(hydroxyamino)-2-oxoethoxy)-2-(trifluoromethyl)phenyl)imidazo[1,2-b]pyridazin-2-yl)-2-methylphenyl)pivalamide] the IC50 was 3460 nM. Cc1ccc(-c2cn3nc(-c4ccc(C=CC(=O)O)cc4)ccc3n2)cc1NC(=O)C(C)(C)C [compound 555] gave an IC50 of 346 nM. For Cc1ccc(-c2cn3nc(Cl)ccc3n2)cc1NC(=O)c1cccc(C=CC(=O)NO)c1 [compound 615], the IC50 was 2240 nM. Cc1ccc(-c2cn3nc(-c4ccc(C(N)=O)cc4)ccc3n2)cc1NC(=O)C(C)(C)C [compound 526] gave an IC50 of 783 nM. Compound CC1CNCCN1c1ccc2nc(-c3ccc(C(F)(F)F)c(NC(=O)C(C)(C)C)c3)cn2n1 (stereo not drawn) [Example 329, N-(5-(6-(2-methylpiperazin-1-yl)imidazo[1,2-b]pyridazin-2-yl)-2-(trifluoromethyl)phenyl)pivalamide] has an IC50 of 2020 nM. Work on COc1cc(-c2ccc3nc(-c4ccc(C)c(NC(=O)C(C)(C)C)c4)cn3n2)ncc1C(=O)O [Example 461, 4-methoxy-6-(2-(4-methyl-3-pivalamidophenyl)imidazo[1,2-b]pyridazin-6-yl)nicotinic acid] yielded an IC50 of 8390 nM. For Cc1ccc(-c2cn3nc(-c4ccc(C(=O)O)cc4F)ccc3n2)cc1NC(=O)C(C)(C)C [compound 523], the IC50 was 9630 nM. CCOC(=O)C=Cc1ccc2nc(-c3ccc(C)c(NC(=O)C(C)(C)C)c3)cn2n1 [compound 572] gave an IC50 of 596 nM. Cc1ccc(-c2cn3nc(-c4cccc(N)n4)ccc3n2)cc1NC(=O)C(C)(C)C [compound 575, N-(5-(6-(6-aminopyridin-2-yl)imidazo[1,2-b]pyridazin-2-yl)-2-methylphenyl)pivalamide] showed an IC50 of 599 nM. CCOC(=O)CCCOc1cc(-c2ccc3nc(-c4ccc(C)c(NC(=O)C(C)(C)C)c4)cn3n2)cc(C(F)(F)F)n1 [Example 431, ethyl 4-(4-(2-(4-methyl-3-pivalamidophenyl)imidazo[1,2-b]pyridazin-6-yl)-6-(trifluoromethyl)pyridin-2-yloxy)butanoate] gave an IC50 of 422 nM. For Cc1ccc(-c2cn3nc(-c4c(C)noc4C)ccc3n2)cc1NC(=O)C(C)(C)C [compound 502], the IC50 was 580 nM. For Cc1ccc(-c2cn3nc(-c4ccc(NC(=O)CCCCCCC(=O)O)cc4)ccc3n2)cc1NC(=O)C(C)(C)C [compound 561], the IC50 was 2300 nM. In the case of CC(=O)Nc1ncc(-c2ccc3nc(-c4ccc(C)c(NC(=O)C(C)(C)C)c4)cn3n2)s1 [Example 447, N-(5-(6-(2-acetamidothiazol-5-yl)imidazo[1,2-b]pyridazin-2-yl)-2-methylphenyl)pivalamide], the IC50 is reported as 293 nM. For Cc1ccc(-c2cn3nc(-c4ccc(O)cc4)ccc3n2)cc1NC(=O)C(C)(C)C [compound 519], the IC50 was 1700 nM. Cc1ccc(-c2cn3nc(-c4cccnc4C(F)(F)F)ccc3n2)cc1N(C)C(=O)C(C)(C)C [compound 514, N-methyl-N-(2-methyl-5-(6-(2-(trifluoromethyl)pyridin-3-yl)imidazo[1,2-b]pyridazin-2-yl)phenyl)pivalamide] gave an IC50 of 392 nM. Compound CC(C)(C)C(=O)Nc1cc(-c2cn3nc(-c4cncc(N)c4)ccc3n2)ccc1C(F)(F)F [Example 343, N-(5-(6-(5-aminopyridin-3-yl)imidazo[1,2-b]pyridazin-2-yl)-2-(trifluoromethyl)phenyl)pivalamide] has an IC50 of 340 nM. Cc1ccc(-c2cn3nc(-c4ccc(O)cc4F)ccc3n2)cc1NC(=O)C(C)(C)C [compound 547] was tested, and the IC50 was 793 nM. COc1cc(CNc2ccc3nc(-c4ccc(C)c(NC(=O)C(C)(C)C)c4)cn3n2)cc(OC)c1OC [compound 587] was tested, and the IC50 was 632 nM. For CCOC(=O)C=Cc1ccc(-c2ccc3nc(-c4ccc(C)c(NC(=O)C(C)(C)C)c4)cn3n2)cc1 [compound 552], the IC50 was 356 nM. For Cc1ccc(-c2cn3nc(-c4cccnc4C(F)(F)F)ccc3n2)cc1-c1c(C)noc1C [compound 507], the IC50 was 2500 nM. For Cc1ccc(-c2cn3nc(-c4cc(C=CC(=O)NO)ccc4Cl)ccc3n2)cc1NC(=O)C(C)(C)C [compound 579], the IC50 was 317 nM. For CCOC(=O)CCCOc1ccc(C(F)(F)F)c(-c2ccc3nc(-c4ccc(C)c(NC(=O)C(C)(C)C)c4)cn3n2)c1 [Example 434, ethyl 4-(3-(2-(4-methyl-3-pivalamidophenyl)imidazo[1,2-b]pyridazin-6-yl)-4-(trifluoromethyl)phenoxy)butanoate], the IC50 was 353 nM. CCOC(=O)C=Cc1cccc(S(=O)(=O)Nc2cc(-c3cn4nc(Cl)ccc4n3)ccc2C)c1 [compound 607] gave an IC50 of 2100 nM. In the case of CC(=O)Nc1ncc(-c2cc(-c3cn4nc(-c5cccnc5C(F)(F)F)ccc4n3)ccc2C)s1 [compound 513], the IC50 is reported as 376 nM. Cc1ccc(-c2cn3nc(-c4ccc(Cl)nc4)ccc3n2)cc1NC(=O)C(C)(C)C [Example 408, N-(5-(6-(6-chloropyridin-3-yl)imidazo[1,2-b]pyridazin-2-yl)-2-methylphenyl)pivalamide] showed an IC50 of 340 nM. COc1cncc(-c2ccc3nc(-c4ccc(C)c(NC(=O)C(C)(C)C)c4)cn3n2)c1 [Example 403, N-(5-(6-(5-methoxypyridin-3-yl)imidazo[1,2-b]pyridazin-2-yl)-2-methylphenyl)pivalamide] gave an IC50 of 474 nM. Work on CC(C)(C)C(=O)Nc1cc(-c2cn3nc(-c4cccs4)ccc3n2)ccc1C(F)(F)F [Example 230, N-(5-(6-(thiophen-2-yl)imidazo[1,2-b]pyridazin-2-yl)-2-(trifluoromethyl)phenyl)pivalamide] yielded an IC50 of 1550 nM. In the case of CC(C)(C)OC(=O)NC1CCN(c2ccc3nc(-c4ccc(C(F)(F)F)c(NC(=O)C(C)(C)C)c4)cn3n2)CC1 [Example 331, tert-butyl 1-(2-(3-pivalamido-4-(trifluoromethyl)phenyl)imidazo[1,2-b]pyridazin-6-yl)piperidin-4-ylcarbamate], the IC50 is reported as 478 nM. Cc1ccc(F)c(-c2ccc3nc(-c4ccc(C(F)(F)F)c(NC(=O)C(C)(C)C)c4)cn3n2)c1 [Example 226, N-(5-(6-(2-fluoro-5-methylphenyl)imidazo[1,2-b]pyridazin-2-yl)-2-(trifluoromethyl)phenyl)pivalamide] gave an IC50 of 1480 nM. COc1ccc2nc(-c3ccc(C)c(NC(=O)c4cccc(C=CC(=O)NO)c4)c3)cn2n1 [compound 616] showed an IC50 greater than 10000 nM. For Cc1ccc(-c2cn3nc(N4CCC(F)(F)C4)ccc3n2)cc1NC(=O)C(C)(C)C [Example 277, N-(5-(6-(3,3-difluoropyrrolidin-1-yl)imidazo[1,2-b]pyridazin-2-yl)-2-methylphenyl)pivalamide], the IC50 was 350 nM. In the case of Cc1ccc(-c2cn3nc(-c4cccc(C(=O)NO)c4)ccc3n2)cc1NC(=O)C(C)(C)C [compound 589], the IC50 is reported as 498 nM. Cc1ccc(C2CN3N=C(c4cccnc4C(F)(F)F)C=CC3=N2)cc1NC(=O)C(C)(C)CN (stereo not drawn) [compound 622, 3-amino-2,2-dimethyl-N-(2-methyl-5-(6-(2-(trifluoromethyl)pyridin-3-yl)-2,3-dihydroimidazo[1,2-b]pyridazin-2-yl)phenyl)propanamide] was tested, and the IC50 was 534 nM. With Cc1ccc(-c2cn3nc(-c4ccc(-c5nnco5)cc4)ccc3n2)cc1NC(=O)C(C)(C)C [compound 539] the IC50 was 350 nM.
